We go through 9 compounds from US12516053B2, “Bcl-2 inhibitors” (BEIGENE, LTD., priority 2019, dated 2026).

The test system of experiment [1] is Molt-4 (Bcl-xL-dependent ALL cell line). Description: Molt-4 cell proliferation assay. In kind it is cell-based. The following applies: Homo sapiens, MOLT-4; CellTiter-GLO; read-out: Cellular proliferation assay (IC50, nM) Molt-4. The text has this: Molt-4 Cell Proliferation Assay:
Each compound was serially diluted with 10 1M as the maximum concentration. The anti-proliferative IC50s of these compounds were similarly determined as a percentage of viable cells upon treatment compared to the untreated control using CellTiter-GLO luminescent assay.

Experiment [2] concerns RS4;11 (BCL-2 dependent acute lymphoblastic leukemia cell line). Description: RS4;11 cell proliferation assay. It is filed as cell-based. The following applies: CellTiter-GLO, read-out: Cellular proliferation assay (IC50, nM) RS4. As for the experimental part:
RS4;11 Cell Proliferation Assay:
Each compound was serially diluted with 1 μM as the maximum concentration. To test the apoptotic effect of the compounds, the cells were seeded at 50,000 in 180 μl per well in 96-well plates and treated with 10-point dilution series of each compound for 48 hrs at 37° C. Cell viability was assessed after the treatment using CellTiter-GLO luminescent assay (Promega) according to the manufacturer's recommendations. Briefly, 30 μl of CellTiter-GLO reagent was added into 200 μl of cell culture, Mixture was agitated on an orbital shaker for 5 mins to ensure cell lysis followed by 7 mins incubation at room temperature to allow development and stabilization of luminescent signals, which corresponded to quantity of ATP and thus the quantity of metabolically active cells. Luminescent signals were measured using PHERAstar FS reader (BMG). Mean IC50 values for cell viability were determined with GraphPad Prism software.

A further experiment has as its target BA/F3-BCL-2 cells (Homo sapiens, UniProt P10415). Description: BA/F3 cell proliferation assay, BCL-2 wild type. It is filed as cell-based, Murine. Here is the method:
(§1) BA/F3 cell Proliferation Assay:
(§2) The cells were treated with a 10-point dilution series of compounds for 24 hrs. After the compound treatment, 30 μl of CellTiter-Glo reagent was added in each well. The effects on proliferation were determined using Cell TiterGlo reagent (Promega) according to the manufacturer's instructions. Luminescent signals were measured using PHERAstar FS plate reader (BMG Labtech). ICS50 values for cell viability were determined with GraphPad Prism software and were the geometric mean of 3 independent experiments.

The next experiment deals with BA/F3-BCL-2 G101V cells (Homo sapiens, UniProt P10415, G101V, cells depend on it). Put plainly: BA/F3 cell proliferation assay, Bcl-2 G101V. In kind it is cell-based, Murine. The following applies: 24 hrs treatment, 3% FBS, CellTiter-Glo, geometric mean of 3 experiments; read-out: Cellular proliferation assay (IC50, nM) Bcl-2 G101V; BaF3 cell. Here is the method: as §1, §2
In general terms: ATP-based viability assays read luminescence as a measure of living cells.

Experiment [3] has as its target recombinant human Bcl-2-G101V protein (Homo sapiens, UniProt P10415, G101V). Put plainly: Bcl-2-G101V TR-FRET assay. In kind it is binding. The text has this: The IC50 for each compound was derived from fitting the data to the four-parameter logistic equation by Graphpad Prism software or Dotmatics.
Experiment [4] deals with Recombinant human Bcl-2 protein (Homo sapiens, UniProt P10415). Description: Bcl-2 TR-FRET assay. In kind it is binding. As for the experimental part: Compounds disclosed herein were tested for blocking of Bcl-2 protein with its ligand in an assay based on Time-Resolved Fluorescence Resonance Energy Transfer (TR-FRET) methodology. Recombinant human 0.05 nM Bcl-2 protein was pre-incubated with a serial dilution of compounds disclosed herein (top final concentration is 1 uM or 0.1 uM or 0.02 uM or 0.01 uM, 10 points) at room temperature for 0.5 hour in an assay buffer containing 20 mM potassium phosphate buffer, pH 7.5, 50 mM NaCl, 1 mM EDTA, 0.05% Tween-20, 0.01% BSA. […] The inhibition percentage of Bcl-2 interaction with its ligand in presence of increasing concentrations of compounds was calculated based on the TR-FRET signals. The IC50 for each compound was derived from fitting the data to the four-parameter logistic equation by Graphpad Prism software or Dotmatics.

Setting [5] is: Homo sapiens, RS4-11, 48 hrs treatment.
Setting [6] is: 24 hrs treatment, 3% FBS, CellTiter-Glo, geometric mean of 3 experiments; read-out: Cellular proliferation assay (IC50, nM) Bcl-2 WT; BaF3 cell.
The mark [7] stands for this setting: TR-FRET, 0.1 nM Bcl-2-G101V, FITC labeled Bak peptide 5 nM, read-out: Biochemical assay (IC50, nM) Bcl-2 G101V.
[8] abbreviates: TR-FRET, 0.05 nM Bcl-2, FITC labeled Bak peptide 0.5 nM, read-out: Biochemical assay (IC50, nM) Bcl-2 WT.

Read-outs that look alike come from different tables or passages of the source.

Consider `CC1(C)CCC(CN2CCN(c3ccc(C(=O)NS(=O)(=O)c4ccc(NCC5CCOCC5)c([N+](=O)[O-])c4)c(Oc4cnc5[nH]ccc5c4)c3)CC2)=C(c2ccc(Cl)cc2)C1` [ABT-199, Venetoclax, reference compound], for which the IC50 in experiment [1] was found to be 2570 nM; in experiment [2] (setting [5]), 4.2 nM.
As for `[2H]C1([2H])CC2(CC(N3CCC[C@H]3c3ccccc3C(C)C)C2)CC([2H])([2H])N1c1ccc(C(=O)NS(=O)(=O)c2cc3c(c([N+](=O)[O-])c2)N[C@H](C[C@H]2CC[C@H](O)CC2)CO3)c(Oc2cnc3[nH]ccc3c2)c1` [Example A6, 2-((1H-pyrrolo[2,3-b]pyridin-5-yl)oxy)-N—(((R)-3-(((1r,4R)-4-hydroxycyclohexyl)methyl)-5-nitro-3,4-dihydro-2H-benzo[b][1,4]oxazin-7-yl)sulfonyl)-4-(2-((S)-2-(2-isopropylphenyl)pyrrolidin-1-yl)-7-azaspiro[3,5]nonan-7-yl-6,6,8,8-d4)benzamide], the IC50 is 0.25 nM on BA/F3-BCL-2 cells (read-out: Cellular proliferation assay (IC50, nM) Bcl-2 WT; BaF3 cell; 24 hrs treatment, 3% FBS, CellTiter-Glo, geometric mean of 3 experiments); 1.3 nM in experiment [2] (setting [5]); 0.51 nM in experiment [3]; 0.021 nM in experiment [4]. At BA/F3-BCL-2 G101V cells, the GI50 worked out at 21.1 nM.
For the compound `[2H]C1([2H])CCC([2H])(c2ccccc2C(C)C)N1C1CC2(CCN(c3ccc(C(=O)NS(=O)(=O)c4cc5c(c([N+](=O)[O-])c4)N[C@H](C[C@H]4CC[C@H](O)CC4)CO5)c(Oc4cnc5[nH]ccc5c4)c3)CC2)C1` (stereo partly drawn) [Example A7, 2-((1H-pyrrolo[2,3-b]pyridin-5-yl)oxy)-N—(((R)-3-(((1r,4R)-4-hydroxycyclohexyl)methyl)-5-nitro-3,4-dihydro-2H-benzo[b][1,4]oxazin-7-yl)sulfonyl)-4-(2-(2-(2-isopropylphenyl)pyrrolidin-1-yl-2,5,5-d3)-7-azaspiro[3,5]nonan-7-v)benzamide], the IC50 amounted to 0.38 nM at BA/F3-BCL-2 cells (setting [6]), 1.5 nM in experiment [2] (setting [5]), 0.92 nM in experiment [3] (setting [7]) and 0.021 nM in experiment [4] (setting [8]). On BA/F3-BCL-2 G101V cells, the GI50 stood at 35.8 nM.
On to `CC(C)c1ccccc1[C@@H]1CCCN1C1CC2(CCN(c3ccc(C(=O)NS(=O)(=O)c4ccc(NCC5(F)CCOCC5)c([N+](=O)[O-])c4)c(N4CCOc5nc6[nH]ccc6cc54)c3)CC2)C1` [Example B4, (S)-2-(2,3-dihydropyrrolo[3′,2′:5,6]pyrido[2,3-b][1,4]oxazin-1(6H)-yl)-N-((4-(((4-fluorotetrahydro-2H-pyran-4-yl)methyl)amino)-3-nitrophenyl)sulfonyl)-4-(2-(2-(2-isopropylphenyl)pyrrolidin-1-yl)-7-azaspiro[3,5]nonan-7-yl)benzamide], for which the IC50 in experiment [1] is 1420 nM; in experiment [2] (setting [5]) it was 0.58 nM; in experiment [3] (setting [7]), 1.2 nM; in experiment [4] (setting [8]) it was 0.018 nM.
Turning to `CC(C)c1ccccc1[C@@H]1CCCN1C1CC2(CCN(c3ccc(C(=O)NS(=O)(=O)c4ccc(NC[C@H]5CC[C@](C)(O)CC5)c([N+](=O)[O-])c4)c(N4C[C@@H](C)Oc5nc6[nH]ccc6cc54)c3)CC2)C1` [Example B5, N-((4-((((1r,4r)-4-hydroxy-4-methylcyclohexyl)methyl)amino)-3-nitrophenyl)sulfonyl)-4-(2-((S)-2-(2-isopropylphenyl)pyrrolidin-1-yl)-7-azaspiro[3,5]nonan-7-yl)-2-((R)-3-methyl-2,3-dihydropyrrolo[3′,2′:5,6]pyrido[2,3-b][1,4]oxazin-1(6H)-yl)benzamide], the IC50 on BA/F3-BCL-2 cells (setting [6]) was found to be 0.13 nM; in experiment [2] (setting [5]), 1 nM; in experiment [3] (setting [7]) it was 1.1 nM; in experiment [4] (setting [8]), 0.025 nM. The GI50 on BA/F3-BCL-2 G101V cells worked out at 8.9 nM.
The like results for `CC(C)c1ccccc1[C@@H]1CCCN1C1CC2(CCN(c3ccc(C(=O)NS(=O)(=O)c4ccc(NC[C@H]5CC[C@](C)(O)CC5)c([N+](=O)[O-])c4)c(N4C[C@H](C)Oc5nc6[nH]ccc6cc54)c3)CC2)C1` [Example B6, N-((4-((((1r,4r)-4-hydroxy-4-methylcyclohexyl)methyl)amino)-3-nitrophenyl)sulfonyl)-4-(2-((S)-2-(2-isopropylphenyl)pyrrolidin-1-yl)-7-azaspiro[3,5]nonan-7-yl)-2-((S)-3-methyl-2,3-dihydropyrrolo[3′,2′:5,6]pyrido[2,3-b][1,4]oxazin-1(6H)-yl)benzamide] were, in that order, 1.1 nM, 0.34 nM, 1.2 nM, 0.027 nM and 31.9 nM.
`CC(C)c1ccccc1[C@@H]1CCCN1C1CC2(CCN(c3ccc(C(=O)NS(=O)(=O)c4cc5c(c([N+](=O)[O-])c4)N[C@H](C[C@H]4CC[C@H](O)CC4)CO5)c(N4C[C@@H](C)Oc5nc6[nH]ccc6cc54)c3)CC2)C1` [Example B7, N—(((R)-3-(((1r,4R)-4-hydroxycyclohexyl)methyl)-5-nitro-3,4-dihydro-2H-benzo[b][1,4]oxazin-7-yl)sulfonyl)-4-(2-((S)-2-(2-isopropylphenyl)pyrrolidin-1-yl)-7-azaspiro[3,5]nonan-7-yl)-2-((R)-3-methyl-2,3-dihydropyrrolo[3′,2′:5,6]pyrido[2,3-b][1,4]oxazin-1(6H)-yl)benzamide]: the IC50 is 0.18 nM on BA/F3-BCL-2 cells (setting [6]), 0.8 nM in experiment [2] (setting [5]), 1.5 nM in experiment [3] (setting [7]) and 0.048 nM in experiment [4] (setting [8]). The GI50 at BA/F3-BCL-2 G101V cells turned out to be 11.2 nM.
For `CC(C)c1ccccc1[C@@H]1CCCN1C1CC2(CCN(c3ccc(C(=O)NS(=O)(=O)c4cc5c(c([N+](=O)[O-])c4)N[C@H](CC4CCC(O)CC4)CO5)c(N4C[C@H](C)Oc5nc6[nH]ccc6cc54)c3)CC2)C1` (stereo partly drawn) [Example B8, N—(((R)-3-(((1r,4R)-4-hydroxycyclohexyl)methyl)-5-nitro-3,4-dihydro-2H-benzo[b][1,4]oxazin-7-yl)sulfonyl)-4-(2-((S)-2-(2-isopropylphenyl)pyrrolidin-1-yl)-7-azaspiro[3,5]nonan-7-yl)-2-((S)-3-methyl-2,3-dihydropyrrolo[3′,2′:5,6]pyrido[2,3-b][1,4]oxazin-1(6H)-yl)benzamide], the IC50 on BA/F3-BCL-2 cells (setting [6]) worked out at 0.65 nM; in experiment [2] (48 hrs treatment), 0.7 nM; in experiment [3] (setting [7]), 3.3 nM; in experiment [4] (setting [8]), 0.055 nM. Further, the GI50 at BA/F3-BCL-2 G101V cells came to 41.2 nM.
On to `CC(C)c1ccccc1[C@@H]1CCCN1C1CC2(CCN(c3ccc(C(=O)NS(=O)(=O)c4cc5c(c([N+](=O)[O-])c4)N[C@H](C[C@H]4CC[C@H](O)CC4)CO5)c(N4CCCOc5nc6[nH]ccc6cc54)c3)CC2)C1` [Example B9, 2-(3,4-dihydro-2H-pyrrolo[3′,2′:5,6]pyrido[2,3-b][1,4]oxazepin-1(7H)-yl)-N—(((R)-3-(((1R,4R)-4-hydroxycyclohexyl)methyl)-5-nitro-3,4-dihydro-2H-benzo[b][1,4]oxazin-7-yl)sulfonyl)-4-(2-((S)-2-(2-isopropylphenyl)pyrrolidin-1-yl)-7-azaspiro[3,5]nonan-7-yl)benzamide], for which the IC50 on BA/F3-BCL-2 cells (setting [6]) worked out at 0.83 nM; in experiment [2] (setting [5]), 0.5 nM; in experiment [3] (setting [7]) it was 3.3 nM; in experiment [4] (setting [8]) it was 0.038 nM. Moreover, on BA/F3-BCL-2 G101V cells, the GI50 worked out at 34.9 nM.
